Source: publication PMC7601585, “Aedes albopictus D7 Salivary Protein Prevents Host Hemostasis and Inflammation” (Biomolecules, 2020)

B1: AeD7L1: D7 long form salivary protein from Ae. aegypti (GenBank: AAA29347) (protein, UniProt P18153 18-321, looked up)
Long form salivary protein …: STGPFDPEEMLFTFTRCMEDNLEDGPNRLPMLAKWKEWINEPVDSPATQCFGKCVLVRTGLYDPVAQKFDASVIQEQFKAYPSLGEKSKVEAYANAVQQLPSTNNDCAAVFKAYDPVHKAHKDTSKNLFHGNKELTKGLYEKLGKDIRQKKQSYFEFCENKYYPAGSDKRQQLCKIRQYTVLDDALFKEHTDCVMKGIRYITKNNELDAEEVKRDFMQVNKDTKALEKVLNDCKSKEPSNAGEKSWHYYKCLVESSVKDDFKEAFDYREVRSQIYAFNLPKKQVYSKPAVQSQVMEIDGKQCPQ

Key:
AlboD7L1 = target: T1, AlboD7L1 (Aedes albopictus, UniProt Q5MIW7); assay: biochemical; format: binding; details: for ΔH (kcal/mol) ± SE / −TΔS: ITC, 30 °C, TBS pH 7.4, single-site model, N fixed = 1
T1 construct: made in house; host or cells: Escherichia coli BL21 (DE3) pLysS
Protocol: To identify the potential biological function of AlboD7L1, isothermal titration calorimetry (ITC) was used to determine its binding affinities to putative ligands that are known to affect inflammation and hemostasis (biogenic amines, leukotrienes, and thromboxane A2). Measurements were performed on a MicroCal VP-ITC (Malvern Panalytical, Westborough, MA, USA) at 30 °C and stir speed at 286 rpm. […] Protein and ligands were diluted in Tris-buffered saline (TBS-20 mM Tris-HCl, 150 mM NaCl, pH 7.4) and degassed under vacuum for 5 min using a MicroCal ThermoVac (Malvern Panalytical, Westborough, MA, USA). The AlboD7L1 concentrations were 2 μM, 3 μM, or 5 μM, and ligand concentrations were prepared at 10-fold the protein concentration (20 μM, 30 μM, or 50 μM), depending on protein/ligand combination for optimal ITC performance. For eicosanoid ligands, the solvent was first evaporated under a stream of nitrogen gas prior to dissolving in TBS, vortexed, and sonicated for 10 min (Branson 1510, Branson Ultrasonics, Danbury, CT, USA) to ensure dissolution. The protein sample volume in the cell was 1.4 mL, and ligand injections were delivered in 10 μL volume in a total of 31 injections. The data was analyzed using the MicroCal PEAQ-ITC analysis software v 1.21 (Malvern Panalytical, Westborough, MA, USA) by fitting to a single-site binding model to obtain the stoichiometry (N), the dissociation constant (KD), the enthalpy of binding (ΔH), and the entropy change (ΔS°) at a constant temperature (T).

AeD7L1 = system: AeD7L1; set-up: method as in PMID 19234127; details: cited from earlier work
platelet rich plasma = assay: Ex vivo platelet aggregation (light transmission aggregometer); format: cell-based, human; details: lower U-46619 doses (Supplementary Figure S3A)
Protocol: Platelet rich plasma was obtained from normal healthy donors on the NCI IRB approved NIH protocol 99-CC-0168, “Collection and Distribution of Blood Components from Healthy Donors for In Vitro Research Use.” Blood donors provided written informed consent, and platelets were de-identified prior to distribution. Platelet aggregation was measured using a light transmission aggregometer (Chrono-Log Corporation, Havertown, PA, USA). Briefly, 300 μL of platelet rich plasma, diluted to approximately 2.5 × 10^5 platelets/μL in HEPES-Tyrode’s buffer (137 mM NaCl, […], 12 mM NaHCO3, 0.34 mM sodium phosphate monobasic, 1 mM MgCl2, 2.9 mM KCl, 5 mM HEPES, 5 mM glucose, 1% BSA, 0.03 mM EDTA, pH 7.4) were pre-stirred in the aggregometer for 1 min to monitor pre-aggregation effects. Recombinant AlboD7L1 or Tyrode’s buffer as negative control were added to the platelet rich plasma before adding the agonists. Aggregation agonists used in our studies included serotonin, epinephrine, collagen type I fibrils from equine tendons, U-46619, ADP or combination of agonists. Their concentrations are specified in the figure or figure captions. Technical duplicates were performed. For experiments shown in Figure 6 a Chrono-Log aggregometer model 500-CA was used while experiments shown in Supplementary Figure S3 were done in a Chrono-Log model 700.

T1 sequence (Q5MIW7 22-332 limits assumed): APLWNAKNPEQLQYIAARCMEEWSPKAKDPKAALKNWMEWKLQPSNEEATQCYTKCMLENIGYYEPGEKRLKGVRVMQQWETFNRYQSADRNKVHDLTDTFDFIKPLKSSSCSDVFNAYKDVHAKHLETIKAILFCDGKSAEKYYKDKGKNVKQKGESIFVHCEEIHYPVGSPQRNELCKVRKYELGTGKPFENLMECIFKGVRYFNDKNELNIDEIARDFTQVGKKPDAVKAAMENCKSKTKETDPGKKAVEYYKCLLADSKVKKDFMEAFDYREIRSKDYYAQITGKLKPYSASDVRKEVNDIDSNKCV

Molecule | Kd (AlboD7L1) [nM] | ΔH (kcal/mol) ± SE (AlboD7L1) [kcal/mol] | −TΔS (AlboD7L1) [kcal/mol] | binding to AeD7L1 (AeD7L1) | platelet aggregation initiated with lower doses of U-46619 (platelet rich plasma)
CNC[C@H](O)c1ccc(O)c(O)c1 [Epinephrine, epinephrine] | 4110 ± 3330 | -6.83 ± 0.809 | -0.637 | – | –
NCCc1c[nH]c2ccccc12 [Tryptamine, tryptamine] | 570 ± 97.7 | -6.43 ± 0.223 | -2.23 | – | –
CCCCC/C=C\C\C=C/C=C/C=C/[C@@H](SC[C@H](N)C(=O)NCC(=O)O)[C@@H](O)CCCC(=O)O [LTD4] | 332 ± 48.3 | -5.00 ± 0.139 | -3.98 | – | –
NC[C@H](O)c1ccc(O)c(O)c1 [Norepinephrine, norepinephrine] | 3.67 ± 0.994 | -11.6 ± 0.186 | -0.116 | – | –
NCCc1c[nH]cn1 [Histamine, histamine] | 278 ± 66.2 | -7.47 ± 0.378 | -1.63 | – | –
NCCc1c[nH]c2ccc(O)cc12 [Serotonin, serotonin] | 4.51 ± 2.66 | -13.7 ± 0.445 | 2.13 | – | –
CCCCC/C=C\C\C=C/C=C/C=C/[C@@H](SC[C@H](N)C(=O)O)[C@@H](O)CCCC(=O)O [LTE4, leukotriene E4] | 567 ± 115 | -3.98 ± 0.180 | -4.69 | – | –
CCCCCC(O)C=CC1C2CC(CO2)C1CC=CCCCC(=O)O (centres unmarked) [U-46619] | 946 ± 269 | -8.54 ± 0.785 | 0.189 | does not bind | –
NCCc1ccc(O)c(O)c1 [Dopamine, dopamine] | 11 ± 2.19 | -12.3 ± 0.197 | 1.23 | – | –
CCCCC/C=C\C[C@@H](O)/C=C/C=C/C=C\[C@@H](O)CCCC(=O)O [LTB4, leukotriene B4] | 342 ± 65 | -2.74 ± 0.085 | -6.23 | – | –
CCCCC/C=C\C\C=C/C=C/C=C/[C@@H](SC[C@H](NC(=O)CC[C@H](N)C(=O)O)C(=O)NCC(=O)O)[C@@H](O)CCCC(=O)O [LTC4] | 67.7 ± 22.4 | -7.90 ± 0.350 | -2.05 | – | –
B1 | – | – | – | – | inhibits platelet aggregation
